From patent US20120196854A1, “PHARMACEUTICAL COMPOSITION COMPRISING AROMATIC HETEROCYCLIC COMPOUND” (Kyowa Hakko Kirin Co., Ltd., priority 2009, published 2012)

Tested on: mouse model of asthma
Assay: Airway hyperresponsiveness and eosinophil infiltration in the airway in a mouse model of asthma
Type: in vivo
Details: 3 mg/kg orally once daily during antigen exposure, OVA-sensitized BALB/c mice
Experimental: The mouse model of asthma was prepared as follows. For experimental use, 6-week-old male BALB/c mice were purchased from Charles River Japan (Atsugi, Kanagawa). Equal amounts of a 0.5 mg/mL solution of ovalbumin in physiological saline and a 10 mg/mL suspension of aluminum hydroxide in physiological saline were mixed to give a sensitizing fluid. With well mixing of the sensitization fluid, 0.2 mL of the fluid was intraperitoneally administered to each mouse for sensitization. About 1 week after the initial sensitization, the same procedure was performed for additional sensitization. […]
The expression of airway hyperresponsiveness (increase of airway reactivity) was evaluated by measuring, under anesthesia, airway reactivity to methacholine (MCh: acetyl-β-methylcholine chloride, Cat. No. A-2251, Sigma-Aldrich) using a respiratory function analyzer [BioSystem XA; version 2.0.2.21 for Windows (registered trademark), preamplifier: MAX2215, body plethysmography box: PLY3011, pressure transducer: Validyne DP45-28, flaw transducer: Validyne DP45-14, Buxco Electronics, Troy, N.Y., USA]. […] As an indicator of airway reactivity, respiratory resistance (RL) values recorded every 5 seconds by the respiratory function analyzer were used. After fixing a mouse to the device and confirming the RL stability, the value after intravenous administration of a physiological saline solution was recorded first. […]

Question: How did the “inhibition of the expression of airway hyperresponsiveness” value turn out when O=C(O)c1cc(-c2ccco2)nc2ccc3nn(-c4ccccc4)nc3c12 [Compound 133, 7-(furan-2-yl)-2-phenyl-2H-[1,2,3]triazolo[4,5-f]quinoline-9-carboxylic acid] was run?
Answer: Its value is 98%.

Question: What about the “inhibition of eosinophil infiltration in the airway” value (BAL fluid) of the same compound?
Answer: Its value is 55%.
